Results: paper PMC5739799 (Oncotarget, 2017)
Read-outs that look alike come from different tables or passages of the source.

How the values were obtained:
[1] = test system: HCC-PDX model 5; assay: Patient-derived HCC xenograft model 5, tumor growth; assay type: in vivo, BALB/c nude mice
Experimental: (§1) The PDX studies were carried out by WuXi AppTec (Shanghai, China). HCC-PDX models were originally established from surgically resected tumor tissue that was implanted in 6–8-week-old female BALB/c nude mice. Animal studies were performed according to the guidelines approved by the Institutional Animal Care and Use Committee of Wuxi AppTec, which follow the guidance of the Association for the Assessment and Accreditation of Laboratory Animal Care. Animals were routinely monitored for their health status and their body weights. Treatment was suspended and/or doses reduced at body weight losses >10%. Animals were euthanized when the tumor size exceeded 2000 mm^3. Pieces from tumor xenografts (∼30 mm^3) from passages 4–8 (ST1) were implanted subcutaneously at the right flank, and tumors were grown to an average size of about 150–200 mm^3. […] Tumor size was measured twice weekly using caliper measurements. Tumor volume (mm^3) was calculated using the formula 0.5 a × b^2, where a and b are the long and short diameters of the tumor, respectively. TGI was assessed either by calculating the ratio of the mean tumor volumes of treated and control groups or by determination of the RTV, which relates tumor volumes at any given day of treatment to the volume at the first treatment day.
(§2) In the syngenic orthotopic H129 model, differences in survival times between groups were analyzed for significance using log-rank tests. Analysis of tumor volumes of the HCC-PDX models was performed with log2-transformed values on defined days of measurement based on the assumption of their log-normal distribution. […] All respective statistical test results were derived from a common linear model that allows for individual variances in the different groups. The adjustment for multiple testing was carried out using Šidák correction at a significance level of 0.05. Back transformation of the mean difference of log2-transformed tumor volumes led to the ratios of the compared groups, whereby ratios of 1 reflect no difference in tumor volumes and ratios below or above 1 reflect smaller or larger tumor volumes, respectively, of the respective second group. The analyses of RTV were carried out in a similar fashion without the log2 transformation of values. Bead-based western data were analyzed (described in [15]) using the MEV 4.8.1 software package. A p-value <0.05 was regarded as significant. All statistical analyses were performed with SAS® 9.4 [34].

[2] = test system: HCC-PDX model 10; assay: Patient-derived HCC xenograft model 10, tumor growth; assay type: in vivo, BALB/c nude mice
Experimental: as §1, §2

[3] = test system: HCC-PDX model 19; assay: Patient-derived HCC xenograft model 19, tumor growth; assay type: in vivo, BALB/c nude mice
Experimental: as §1, §2

[4] = test system: HCC-PDX model 20; assay: Patient-derived HCC xenograft model 20, tumor growth; assay type: in vivo, BALB/c nude mice
Experimental: as §1, §2

[5] = test system: HCC-PDX model 61; assay: Patient-derived HCC xenograft model 61, tumor growth; assay type: in vivo, BALB/c nude mice
Experimental: as §1, §2

[6] = test system: HCC-PDX model 101; assay: Patient-derived HCC xenograft model 101, tumor growth; assay type: in vivo, BALB/c nude mice
Experimental: as §1, §2

[7] = test system: HCC-PDX model 141; assay: Patient-derived HCC xenograft model 141, tumor growth; assay type: in vivo, BALB/c nude mice
Experimental: as §1, §2

[8] = test system: HCC-PDX model 159; assay: Patient-derived HCC xenograft model 159, tumor growth; assay type: in vivo, BALB/c nude mice
Experimental: as §1, §2

[9] = test system: HCC-PDX model 189; assay: Patient-derived HCC xenograft model 189, tumor growth; assay type: in vivo, BALB/c nude mice
Experimental: as §1, §2

[10] = test system: HCC-PDX model 217; assay: Patient-derived HCC xenograft model 217, tumor growth; assay type: in vivo, BALB/c nude mice
Experimental: as §1, §2

[11] = test system: 10 patient-derived HCC xenograft (HCC-PDX) models; assay: Panel of 10 HCC-PDX models, overall response and tolerability; assay type: in vivo, BALB/c nude mice; details: 10 HCC-PDX models; regorafenib 10, sorafenib 30 mg/kg/day oral
Experimental: as §1
In the syngenic orthotopic H129 model, differences in survival times between groups were analyzed for significance using log-rank tests. Analysis of tumor volumes of the HCC-PDX models was performed with log2-transformed values on defined days of measurement based on the assumption of their log-normal distribution. […] All respective statistical test results were derived from a common linear model that allows for individual variances in the different groups. The adjustment for multiple testing was carried out using Šidák correction at a significance level of 0.05. […] Bead-based western data were analyzed (described in [15]) using the MEV 4.8.1 software package. […]

[12] = Steady-state plasma pharmacokinetics after oral dosing for 5 days; assay type: in vivo, BALB/c nu/nu mice
Experimental: Pharmacokinetic studies were performed in 6–8-week-old female BALB/c nu/nu mice (Charles River, Sulzfeld, Germany). […] Parent compounds and metabolites M-2 and M-5 were analyzed in plasma samples using validated bioanalytical liquid chromatography-tandem mass spectrometry (LC-MS/MS) methods according to an experimental protocol described earlier. PK parameters, namely the AUC(0–24)ss and Cmax, were calculated from plasma concentrations using a non-compartmental analysis.

[13] = day 28, R 10 / S 30 mg/kg/day oral starting dose
[14] = plasma analyte after oral regorafenib 10 mg/kg/day for 5 days

CNC(=O)c1cc(Oc2ccc(NC(=O)Nc3ccc(Cl)c(C(F)(F)F)c3)c(F)c2)ccn1 [Regorafenib]
log TV Ratio, compound vs vehicle (T/C) ([1]; day 28): 0.13 | log TV Ratio, regorafenib vs sorafenib ([1]; day 28): 0.73 | Mean TV [1, 13]: 80.96 mm^3 | log TV Differences of least square-means, compound vs vehicle ([1]; day 28, log2-transformed TV): -29,518 | log TV Differences of least square-means, regorafenib vs sorafenib ([1]; day 28, log2-transformed TV): -0.4634 | RTV Differences of least square-means, compound vs vehicle ([1]; day 46): -60,049 | RTV Differences of least square-means, regorafenib vs sorafenib ([1]; day 46): -0.6001 | RTV ([1]; end of study, day 46): 1.14 | RTV Differences of least square-means, regorafenib vs sorafenib ([2]; RTV analysis day R 40, S 30): -99,327 | log TV Ratio, compound vs vehicle (T/C) ([2]; day 12): 0.15 | log TV Ratio, regorafenib vs sorafenib ([2]; day 12): 0.53 | Mean TV ([2]; day 12, R 10 / S 30 mg/kg/day oral): 332.11 mm^3 | log TV Differences of least square-means, compound vs vehicle ([2]; day 12, log2-transformed TV): -27,077 | log TV Differences of least square-means, regorafenib vs sorafenib ([2]; day 12, log2-transformed TV): -0.9111 | RTV ([2]; end of study (RTV analysis day R 40, S 30)): 9.15 | log TV Ratio, compound vs vehicle (T/C) ([3]; day 28): 0.66 | log TV Ratio, regorafenib vs sorafenib ([3]; day 28): 1.06 | Mean TV [3, 13]: 542.38 mm^3 | log TV Differences of least square-means, compound vs vehicle ([3]; day 28, log2-transformed TV): -0.6083 | log TV Differences of least square-means, regorafenib vs sorafenib ([3]; day 28, log2-transformed TV): 0.08047 | RTV Differences of least square-means, compound vs vehicle ([3]; day 42): -24.1 | RTV Differences of least square-means, regorafenib vs sorafenib ([3]; day 42): 0.5174 | RTV ([3]; end of study, day 42): 5.21 | log TV Ratio, compound vs vehicle (T/C) ([4]; day 21): 0.73 | log TV Ratio, regorafenib vs sorafenib ([4]; day 21): 0.93 | Mean TV ([4]; day 21, R 10 / S 30 mg/kg/day oral): 742.98 mm^3 | log TV Differences of least square-means, compound vs vehicle ([4]; day 21, log2-transformed TV): -0.4621 | log TV Differences of least square-means, regorafenib vs sorafenib ([4]; day 21, log2-transformed TV): -0.1048 | RTV Differences of least square-means, compound vs vehicle ([4]; day 42): -23.2 | RTV Differences of least square-means, regorafenib vs sorafenib ([4]; day 42): -11 | RTV ([4]; end of study, day 42): 9.46 | RTV Differences of least square-means, regorafenib vs sorafenib ([5]; RTV analysis day R 42, S 36): -19.5 | log TV Ratio, compound vs vehicle (T/C) ([5]; day 25): 0.26 | log TV Ratio, regorafenib vs sorafenib ([5]; day 25): 0.72 | Mean TV ([5]; day 25, R 10 / S 30 mg/kg/day oral): 331.96 mm^3 | log TV Differences of least square-means, regorafenib vs sorafenib ([5]; day 25, log2-transformed TV): -0.4771 | RTV ([5]; end of study (RTV analysis day R 42, S 36)): 5.43 | log TV Ratio, compound vs vehicle (T/C) ([6]; day 28): 0.19 | log TV Ratio, regorafenib vs sorafenib ([6]; day 28): 0.41 | Mean TV [6, 13]: 177.21 mm^3 | RTV ([6]; end of study, day 42): 2.06 | log TV Ratio, compound vs vehicle (T/C) ([7]; day 28): 0.10 | log TV Ratio, regorafenib vs sorafenib ([7]; day 28): 0.76 | Mean TV [7, 13]: 89.74 mm^3 | log TV Differences of least square-means, regorafenib vs sorafenib ([7]; day 28, log2-transformed TV): -0.3980 | RTV ([7]; end of study, day 42): 1.04 | log TV Ratio, compound vs vehicle (T/C) ([8]; day 28): 0.59 | log TV Ratio, regorafenib vs sorafenib ([8]; day 28): 0.78 | Mean TV [8, 13]: 864.43 mm^3 | log TV Differences of least square-means, compound vs vehicle ([8]; day 28, log2-transformed TV): -0.7546 | log TV Differences of least square-means, regorafenib vs sorafenib ([8]; day 28, log2-transformed TV): -0.3604 | RTV Differences of least square-means, regorafenib vs sorafenib ([8]; day 35): -0.6894 | RTV ([8]; end of study, day 35): 9.04 | RTV Differences of least square-means, compound vs vehicle ([9]; day 21): -31,656 | RTV Differences of least square-means, regorafenib vs sorafenib ([9]; day 21): -0.2628 | log TV Ratio, compound vs vehicle (T/C) ([9]; day 21): 0.42 | log TV Ratio, regorafenib vs sorafenib ([9]; day 21): 0.88 | Mean TV ([9]; day 21, R 10 / S 30 mg/kg/day oral starting dose): 322.88 mm^3 | log TV Differences of least square-means, compound vs vehicle ([9]; day 21, log2-transformed TV): -12,395 | log TV Differences of least square-means, regorafenib vs sorafenib ([9]; day 21, log2-transformed TV): -0.1791 | RTV ([9]; end of study, day 21): 2.39 | RTV Differences of least square-means, regorafenib vs sorafenib ([10]; RTV analysis day R 24, S 20): -14,902 | log TV Ratio, compound vs vehicle (T/C) ([10]; day 13): 0.45 | log TV Ratio, regorafenib vs sorafenib ([10]; day 13): 0.92 | Mean TV ([10]; day 13, R 10 / S 30 mg/kg/day oral): 932.43 mm^3 | log TV Differences of least square-means, compound vs vehicle ([10]; day 13, log2-transformed TV): -11,395 | log TV Differences of least square-means, regorafenib vs sorafenib ([10]; day 13, log2-transformed TV): -0.1276 | RTV ([10]; end of study (RTV analysis day R 24, S 20)): 12.77 | Models with significant tumor growth inhibition [11]: 8/10 | AUC(0–24)ss (percent of total) ([12]; after oral regorafenib 10 mg/kg/day for 5 days, total = molar sum of regorafenib, M-2, M-5): 90% of total | AUC(0-t) ([12]; female, BALB/c nu/nu, mouse, plasma analyte after oral regorafenib 10 mg/kg/day for 5 days, read-out: AUC(0–24)ss): 93100 ng·h/mL | Cmax ([12]; female, BALB/c nu/nu, mouse, plasma analyte after oral regorafenib 10 mg/kg/day for 5 days, read-out: Cmax): 10700 ng/mL | AUC(0–24)ss [12, 14]: 193 µM·h | Cmax [12, 14]: 22.2 µM | Cumulated maximum concentration (Cmax) ([12]; regorafenib 10 mg/kg once daily for 5 days, parent plus metabolites): 24.5 µM
